Reference: ChEMBL document CHEMBL4715740, “Synthesis, anti-inflammatory, analgesic, COX-1/2 inhibitory activities and molecular docking studies of substituted 2-mercapto-4(3H)-quinazolinones” (Eur J Med Chem, 2016)

What was measured:
[1] = biological target: T1, Prostaglandin G/H synthase 1 (Ovis aries, UniProt P05979); assay: Inhibition of ovine COX1 assessed as reduction in PGF2alpha production using arachidonic acid as substrate preincubated with enzyme for 5 mins followed by substrate addition and measured after 2 mins by colorimetric analysis
T1 sequence (P05979 whole entry): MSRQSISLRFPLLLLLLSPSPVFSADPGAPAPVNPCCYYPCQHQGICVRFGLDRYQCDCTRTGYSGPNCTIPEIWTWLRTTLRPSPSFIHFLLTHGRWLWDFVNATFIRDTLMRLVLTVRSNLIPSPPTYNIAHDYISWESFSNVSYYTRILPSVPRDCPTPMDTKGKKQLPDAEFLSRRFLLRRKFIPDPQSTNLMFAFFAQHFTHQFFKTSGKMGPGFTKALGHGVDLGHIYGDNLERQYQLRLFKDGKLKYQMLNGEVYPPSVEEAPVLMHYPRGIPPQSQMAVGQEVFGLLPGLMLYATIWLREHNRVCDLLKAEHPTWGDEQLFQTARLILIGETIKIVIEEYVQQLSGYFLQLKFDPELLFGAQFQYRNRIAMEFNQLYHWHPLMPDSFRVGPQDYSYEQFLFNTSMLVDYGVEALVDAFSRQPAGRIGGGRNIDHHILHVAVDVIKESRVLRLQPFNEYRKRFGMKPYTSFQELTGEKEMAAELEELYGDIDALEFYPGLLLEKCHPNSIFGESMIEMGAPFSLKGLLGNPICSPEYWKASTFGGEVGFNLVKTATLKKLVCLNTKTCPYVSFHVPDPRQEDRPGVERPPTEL

Rattus norvegicus = assay: Antiinflammatory activity against Sprague-Dawley rat assessed as reduction in carragenan-induced paw edema administered ip and measured after 2 hrs by plethysmometry; type: functional
Mus musculus = assay: Analgesic activity in Swiss albino mouse administered ip and measured after 60 mins by hot plate method; type: functional; settings: 1 h

SMILES | IC50 [1] [µM] | ED50 (Rattus norvegicus) [mg/kg] | ED50 (Mus musculus) [mg/kg]
O=c1c2ccccc2nc(S)n1CCc1ccccn1 | > 100 | – | –
CCOC(=O)CSc1nc2ccccc2c(=O)n1CCc1ccccn1 | – | > 200 | > 200
NNC(=O)CSc1nc2ccccc2c(=O)n1CCc1ccccn1 | > 100 | – | –
CC(C)c1ccc(CSc2nc3ccccc3c(=O)n2CCc2ccccn2)cc1 | – | > 200 | > 200
N#CCSc1nc2ccccc2c(=O)n1CCc1ccccn1 | – | > 200 | > 200
CCn1c(S)nnc1CSc1nc2ccccc2c(=O)n1CCc1ccccn1 | > 100 | 91.9 | 71.4
CCNC(=S)NNC(=O)CSc1nc2ccccc2c(=O)n1CCc1ccccn1 | > 100 | 70.5 | 33.3
O=C1c2ccccc2C(=O)N1CCCSc1nc2ccccc2c(=O)n1CCc1ccccn1 | – | > 200 | > 200
COc1ccc(C(=O)NNC(=O)CSc2nc3ccccc3c(=O)n2CCc2ccccn2)cc1 | > 100 | 101 | 101
O=c1c2ccccc2nc(SCc2ccc(Cl)cc2)n1CCc1ccccn1 | > 100 | 65.7 | 99.2
CCNc1nnc(CSc2nc3ccccc3c(=O)n2CCc2ccccn2)s1 | – | > 200 | > 200
O=C(CSc1nc2ccccc2c(=O)n1CCc1ccccn1)NNC(=O)c1ccccc1 | > 100 | 90.1 | 86.1
O=c1c2ccccc2nc(SCCN2CCOCC2)n1CCc1ccccn1 | – | > 200 | > 200
CCC(=O)NNC(=O)CSc1nc2ccccc2c(=O)n1CCc1ccccn1 | > 100 | 83.3 | 95.5
COc1ccc(NC(=S)NNC(=O)CSc2nc3ccccc3c(=O)n2CCc2ccccn2)cc1 | – | > 200 | > 200
O=C(CSc1nc2ccccc2c(=O)n1CCc1ccccn1)NNC(=S)NCc1ccccc1 | – | > 200 | 47.4
O=c1c2ccccc2nc(SCc2nnc(S)n2-c2ccccc2)n1CCc1ccccn1 | – | > 200 | > 200
O=c1c2ccccc2nc(SCc2nnc(Nc3ccccc3)s2)n1CCc1ccccn1 | – | > 200 | > 200
O=c1c2ccccc2nc(SCc2nnc(NCc3ccccc3)s2)n1CCc1ccccn1 | – | > 200 | > 200
CSc1nc2ccccc2c(=O)n1CCc1ccccn1 | – | > 200 | > 200
O=C(CSc1nc2ccccc2c(=O)n1CCc1ccccn1)NNC(=S)Nc1ccccc1 | – | > 200 | > 200
COc1ccc(Nc2nnc(CSc3nc4ccccc4c(=O)n3CCc3ccccn3)s2)cc1 | – | > 200 | > 200
CCSc1nc2ccccc2c(=O)n1CCc1ccccn1 | > 100 | 74.5 | 105
O=C(CSc1nc2ccccc2c(=O)n1CCc1ccccn1)NNC(=O)c1ccc(Cl)cc1 | – | > 200 | > 200
O=c1c2ccccc2nc(SCc2ccccc2)n1CCc1ccccn1 | – | > 200 | > 200
O=c1c2ccccc2nc(SCc2nnc(S)n2Cc2ccccc2)n1CCc1ccccn1 | – | > 200 | > 200
Cc1ccc(-c2cc(C(F)(F)F)nn2-c2ccc(S(N)(=O)=O)cc2)cc1 [CELECOXIB] | – | 84.3 | 71.6
